# Measured values reported in PMC8873228, “In-depth comparison of the metabolic and pharmacokinetic behaviour of the structurally related synthetic cannabinoids AMB-FUBINACA and AMB-CHMICA in rats” (Communications Biology, 2022).
# “Also recorded” adds a separate entry of the source. Where two headings read alike, the source gives them in different places.
# Experiments:
# [1] = Quantification of parent compounds and O-demethyl metabolites in rat brain, liver, kidney, serum and urine by UHPLC-HRMS after intraperitoneal injection; format: in vivo, male Sprague-Dawley rats; conditions: 1 mg/kg i.p.; for concentration at 30 min: 30 min after injection
# Procedure: 8 male Sprague-Dawley rats (8 weeks old, weighing between 385 and 425 g) were used as animal models (Janvier Labs, Le Genest-Saint-Isle, France). Animals were housed individually in polypropylene plastic cages under controlled temperature (24 ± 2 °C) and lighting conditions (12 h:12 h; lights ON at 8 AM), with ad libitum access to food and water. Before SCRA injection, animals were handled and habituated to the experimental room for 1 week. All the experiments were approved by the Committee of Ethics and Animal Experimentation of Universitat Jaume I (2019/VSC/PEA/048) and treated throughout according to the European Union Council Directive of June 3rd, 2010 (6106/1/10 REV1).
# SCRAs were dosed intraperitoneally at 1 mg/kg. This dose was selected based on similar studies reported in literature. The solution used for injection was prepared at 1 mg/mL in physiological saline solution containing 5% ethanol. Between 385 and 425 µL of that solution were injected depending on animal weight. Blood (serum), liver, brain, and kidney samples were dissected 15, 30, and 180 min after injection (previously anesthetised with CO2 and decapitated immediately). Blood was collected mainly from carotid arteries and jugular veins and kept at room temperature for 30 min to elicit coagulation. Then, blood was centrifuged 10 min at 2000 rcf at 4 °C in order to separate serum from sedimented clot. Liver, kidney, and brain were rapidly dissected and snap-freezing in liquid nitrogen. One animal was used for each dissection time. Additional serum, liver, brain, and kidney samples were obtained from an animal 48 h after being SCRA-dosed, and used as control. Urine samples were collected at 30, 60, 90, 120, 180, 240, 300, and 360 min, together with an additional sample at 24 h (composite urine sample between 360 min and 24 h, collected from animal dissected at 48 h). Urine samples were obtained from the bottom of the cage at the indicated time. Additionally, urine sample collected from one of the animals prior to injection was used as control. Samples were snap-frozen in liquid nitrogen after collection, and preserved at −23 °C until analysis.
# Solid samples (brain, liver, and kidney) were crushed with dry ice using an electric grinder. 0.1 g were accurately weighed (±0.1 mg) in 1.5 mL polypropylene tubes, and 0.3 mL of acetonitrile acidified with 1% of formic acid were added for extraction. After that, samples were sonicated for 5 min, followed by 30 min of vortex agitation. Samples were then frozen for 30 min in order to increase protein removal. Finally, they were centrifuged at 12,500 rfc during 15 min, and the supernatant was 10-fold diluted with ultrapure water for UHPLC-HRMS analysis.
# Similarly to solid samples, samples were frozen for 30 min, centrifuged at 12,500 rfc for 15 min, and the supernatant 10-fold diluted with ultrapure water for UHPLC-HRMS analysis.
# For parent compounds and O-demethyl metabolites estimated quantification, a calibration line in solvent from 2.5 to 250 ng/mL was included in each batch analysis, as well as different quality control samples (QCs) prepared with blank extracts and spiked at 200 ng/mL for evaluating matrix effect and apply a correction factor.
# Samples were analysed using an Acquity ultra-performance liquid chromatography (UPLC) system (Waters Corp, Mildford, MA, USA) coupled to a Xevo G2 QTOF (Waters Corp, Manchester, UK) mass spectrometer with quadrupole time-of-flight (QTOF) hybrid mass analyser.
# Chromatographic separation was performed using a Cortecs T3 100 ×2.1 mm, 1.6 µm particle size analytical column (Waters Corp, Wexford, Ireland), maintained at 40 °C. […] Injection volume was 50 µL.
# [2] = tested on: pooled human hepatocytes; conditions: AMB-FUBINACA incubated with pooled human hepatocytes; cited from earlier work
# [3] = 15 min after injection, one sample, estimated concentration, 1 mg/kg
# [4] = male, Sprague-Dawley, brain, ip, 1 mg/kg, 15 min after injection, one sample, estimated concentration, read-out: Brain concentration
# [5] = male, Sprague-Dawley, brain, ip, 1 mg/kg, one sample, estimated concentration, read-out: Brain concentration
# [6] = male, Sprague-Dawley, brain/serum, ip, read-out: Brain/serum ratio, tissue (ng/g)/serum (ng/mL)
# [7] = male, Sprague-Dawley, kidney, ip, 1 mg/kg, 15 min after injection, one sample, estimated concentration, read-out: Kidney concentration
# [8] = male, Sprague-Dawley, kidney, ip, 1 mg/kg, one sample, estimated concentration, read-out: Kidney concentration
# [9] = male, Sprague-Dawley, kidney/serum, ip, read-out: Kidney/serum ratio, tissue (ng/g)/serum (ng/mL)
# [10] = male, Sprague-Dawley, liver, ip, 1 mg/kg, 15 min after injection, one sample, estimated concentration, read-out: Liver concentration
# [11] = male, Sprague-Dawley, liver, ip, 1 mg/kg, one sample, estimated concentration, read-out: Liver concentration
# [12] = male, Sprague-Dawley, liver, ip, 1 mg/kg, 180 min after injection, one sample, estimated concentration, read-out: Liver concentration
# [13] = male, Sprague-Dawley, liver/serum, ip, read-out: Liver/serum ratio, tissue (ng/g)/serum (ng/mL)
# [14] = male, Sprague-Dawley, liver/serum, ip, 180 min, read-out: Liver/serum ratio, tissue (ng/g)/serum (ng/mL)
# [15] = male, Sprague-Dawley, serum, ip, 1 mg/kg, 15 min after injection, one sample, estimated concentration, read-out: Serum concentration
# [16] = male, Sprague-Dawley, serum, ip, 1 mg/kg, one sample, estimated concentration, read-out: Serum concentration
# [17] = male, Sprague-Dawley, serum, ip, 1 mg/kg, 180 min after injection, one sample, estimated concentration, read-out: Serum concentration
# [18] = male, Sprague-Dawley, kidney, ip, 1 mg/kg, 180 min after injection, one sample, estimated concentration, read-out: Kidney concentration
# [19] = 48 h after injection, one sample, estimated concentration, 1 mg/kg
Structure (SMILES),"Brain concentration [1, 3] [ng/g]","concentration at 15 min [1, 4] [ng/g]","concentration at 30 min [1, 5] [ng/g]","Kp at 15 min [1, 6]","Kp at 30 min [1, 6]","concentration at 15 min [1, 7] [ng/g]","concentration at 30 min [1, 8] [ng/g]","Kp at 15 min [1, 9]","Kp at 30 min [1, 9]","concentration at 15 min [1, 10] [ng/g]","concentration at 30 min [1, 11] [ng/g]","concentration at 180 min [1, 12] [ng/g]","Kp at 15 min [1, 13]","Kp at 30 min [1, 13]","Kp at 180 min [1, 14]","concentration at 15 min [1, 15] [ng/mL]","concentration at 30 min [1, 16] [ng/mL]","concentration at 180 min [1, 17] [ng/mL]","Liver concentration [1, 3] [ng/g]","concentration at 180 min [1, 18] [ng/g]",also measured
COC(=O)C(NC(=O)c1cn(CC2CCCCC2)c2ccccc12)C(C)C (stereo not drawn) [AMB-CHMICA],21.3,21,20.7,0.47,0.31,36.5,66,0.81,1,846,874,< 5,18.8,13.3,1.18,45.1,65.9,3.93,–,–,"Liver concentration ([1]; 180 min after injection, one sample, estimated concentration, 1 mg/kg): 4.64 ng/g"
COC(=O)C(NC(=O)c1nn(Cc2ccc(F)cc2)c2ccccc12)C(C)C (stereo not drawn) [AMB-FUBINACA],57.2,57,18.4,4.38,6.05,42.6,16.4,3.27,5.42,7,4.59,–,0.56,1.52,–,13,3.03,–,7.25,3.36,"Liver concentration ([1]; 180 min after injection, one sample, estimated concentration): no longer detected; Blood-brain barrier permeability compared by brain/serum concentration ratio ([1]; at measured time points, versus AMB-CHMICA, 1 mg/kg): higher permeability than AMB-CHMICA (up to ten times); also recorded: around ten-fold more permeable than AMB-CHMICA; concentration at 180 min ([1]; male, Sprague-Dawley, brain, ip, 1 mg/kg, 180 min after injection, one sample, estimated concentration, read-out: Brain concentration): 2.64 ng/g"
CC(C)C(NC(=O)c1nn(Cc2ccc(F)cc2)c2ccccc12)C(=O)O (stereo not drawn) [O-demethyl AMB-FUBINACA],–,–,3.83,–,0.05,12.5,27.4,0.5,0.36,110,356,265,4.47,4.63,1.94,25,76.8,136,111,43.7,"Serum concentration [1, 3]: 24.9 ng/mL; Urine concentration ([1]; 24 h (composite urine 360 min to 24 h)): 7.33 ng/mL; Liver concentration [1, 19]: 31.49 ng/g; Serum concentration [1, 19]: 5.72 ng/mL; Kp at 180 min ([1]; male, Sprague-Dawley, kidney/serum, ip, 180 min, read-out: Kidney/serum ratio, tissue (ng/g)/serum (ng/mL)): 0.32; concentration at 48 h ([1]; male, Sprague-Dawley, liver, ip, 1 mg/kg, 48 h after injection, one sample, estimated concentration, read-out: Liver concentration): 31 ng/g; concentration at 48 h ([1]; male, Sprague-Dawley, serum, ip, 1 mg/kg, 48 h after injection, one sample, estimated concentration, read-out: Serum concentration): 6 ng/mL; concentration at 180 min ([1]; male, Sprague-Dawley, urine, ip, 1 mg/kg, 180 min, read-out: Urine concentration): 5.78 ng/mL; concentration at 300 min ([1]; male, Sprague-Dawley, urine, ip, 1 mg/kg, 300 min): 1.13 ng/mL; Incubation time after which the O-demethyl metabolite was the major compound in incubation media [2]: 2 to 3 min"
